Data set [1] deals with HeLa cells. As to the kind of experiment: Cytoprotection from ER stress (tunicamycin, WST-8 cell viability). It counts as cell-based. To be noted: 6 hour exposure of tunicamycin 5 μg/mL, inhibitors 0.5-10 μM, viability 48 h or 72 h after. The source says: Cytoprotection against ER stress can be measured by a suitable assay. For example, cytoprotection can be measured in HeLa cells in which ER stress is elicited by the addition of media containing tunicamycin, a mixture of homologous nucleoside antibiotics that inhibits the UDP-HexNAc: polyprenol-P HexNAc-1-P family of enzymes and is used to induce unfolded protein response. Cell viability can be detected in the presence and absence of inhibitor compounds after a set period of time, by measuring the reduction of WST-8 into formazan using a standard cell viability kit (such as Cell Viability Counting Kit-8 from Dojindo). The person skilled in the art may use other class of tetrazolium compounds such as MTT, MTS, XTT. Cytoprotection from ER stress is measured in terms of the percentage increase in viable cells (relative to control) after ER stress. Alternative cell viability assays may be used such as luminogenic ATP assay. Further details of a suitable assay are set forth in the accompanying Examples section.
HeLa Cells were cultured in Eagle's Minimum Essential Medium (EMEM) supplemented with Glutamine, Sodium Pyruvate, Non-Essential Amino Acids, Penicillin and Streptomycin containing 10% Fœtal Bovine Serum (FBS), at 37° C. in 5% CO2 atmosphere. Cells were plated in 96 well plates at a density of 17,000 cells/mL the day before the treatment. ER stress was elicited by addition of 5 μg/mL tunicamycin (Sigma-Aldrich) together with the phosphatases inhibitors (0.5-10 μM). Media were changed 6 h later with fresh media and the cytoprotection was maintained by the addition of the phosphatases inhibitors (0.5-10 μM). Cell viability was assessed by measuring the reduction of WST-8 into formazan using Cell Counting Kit-8 (Sigma) according to the supplier's recommendation, 48 h or 72 h after tunicamycin treatment.
(In general: Formazan colour is commonly taken as a measure of viable cells.)

Data set [2] concerns HeLa cells. The experiment in a line: Assessment of translation rates in unstressed cells. Type of data set: cell-based. As to conditions: compounds 50 μM for 2.5, 5 and 9 h.
Procedure: Culture medium was replaced by methionine-free DMEM medium (Invitrogen) 30 min before compounds addition. One hour before each time point, 50 μM of Click-iT® AHA (L-azidohomoalanine) (Invitrogen) was added to the culture medium in order to label newly synthesized proteins. At the end of each time point, cells were washed with ice-cold PBS and harvested by Trypsine dissociation (Lonza), then lysed in a 50 mM Tris-HCl buffer containing 1% of SDS (Sigma) and protease and phosphatase inhibitors (Sigma). Protein samples were coupled to alkyne biotin (Invitrogen) using Click-iT® Protein Reaction Buffer Kit (Invitrogen). Samples were denatured at 70° C. for 10 min, resolved on ECL 4-20% precasted gels (GE Healthcare) and transferred to nitrocellulose membranes (GE Healthcare). Alkyne biotin coupled to Click-iT® AHA incorporated to newly synthesized proteins was detected using streptavidin-HRP (Gentex). Revelation was performed by incubation of ECL Prime (GE Healthcare) and read by chemoluminiscence using Fusion Solo 3S (Vilber Lourmat).
For the next data set, the system named is Min6 cells. As to the kind of experiment: Protection against accumulation of misfold prone Insulin Akita in Min6 cells. It counts as cell-based. As to conditions: viability 9 days after treatment. As to the method:
Min6 cells were nucleofected with Insulin^Akita a mutant constructs and seeded in 96 well-plates at 300,000 cells/mL and 24 h later, cells were treated with molecules or left untreated. As a control, cells were nucleofected with non-relevant plasmid. 6 days later, a selective agent was added (G418).
Cell viability was assessed by measuring the reduction of WST-8 into formazan using Cell Counting Kit-8 (Sigma) according to the supplier's recommendation, 9 days after treatment.

The next data set concerns INS1 insulinoma cell. As to the kind of experiment: Cytoprotection from ER stress (tunicamycin) in INS1 cell line. It counts as cell-based. As to conditions: 6 hour exposure to tunicamycin, different concentrations. The procedure:
(§1) Cells were plated in 96 well plates at a density of 0.5·10^6 cells/mL for Min6 cell line, 0.4·10^6 cells/mL for INS1 cell line the day before the treatment.
(§2) ER stress was elicited by addition of 2.5 μg/mL tunicamycin (Sigma Aldrich) together with phosphatases inhibitors.
(§3) Media were changed 6 h later with fresh media and the cytoprotection was maintained by the addition of phosphatases inhibitors.
(§4) Cell viability was assessed by measuring the reduction of WST-8 into formazan using Cell Counting Kit-8 (Sigma) according to the supplier's recommendation, 72 h after tunicamycin treatment.

A further data set concerns Min6 insulinoma cell. As to the kind of experiment: Cytoprotection from ER stress (tunicamycin) in Min6 cell line. It counts as cell-based. To be noted: 6 hour exposure to tunicamycin, different concentrations. As to the method: as §1, §2, §3, §4
The subject of data set [3] is mouse embryonic fibroblasts lipofected with poly I:C. As to the kind of experiment: In vitro inflammation/infection model: poly I:C induced mouse embryonic fibroblasts. It counts as cell-based. As to conditions: 25 μM, 6 h, IFN-beta ELISA.
Procedure: After 6 h of culture, eIF2alpha-phosphorylation (eIF2α-P) and PPP1R15A (GADD34) expression was monitored by western blotting, while type-I Interferon (IFN)-beta production was quantified in culture supernatants by ELISA. Control (nt) and poly I:C/DMSO are respectively negative and positive controls.
MEFs were cultured in DMEM, 10% FCS (HyClone, Perbio), 100 units/ml penicillin, 100 μg/ml streptomycin, 2 mM glutamine, 1×MEM non-essential amino acids and 50 μM 2-mercaptoethanol. MEFS were treated for the indicated time with 10 μg/ml poly I:C (InvivoGen) in combination with lipofectamine 2000 (Invitrogen).
Cells were lysed in 1% Triton X-100, 50 mM Hepes, 10 mM NaCl, 2.5 mM MgCl2, 2 mM EDTA, 10% glycerol, supplemented with Complete Mini Protease Inhibitor Cocktail Tablets (Roche). Protein quantification was performed using the BCA Protein Assay (Pierce). […] Rabbit polyclonal antibodies recognizing GADD34 (C-19) were from Santa Cruz Biotechnology and anti-eIF2alpha[pS^52] were from Invitrogen.
IFN-beta quantification in culture supernatant was performed using the Mouse Interferon Beta ELISA kit (PBL Interferon Source) according to manufacturer instructions.
The subject of data set [4] is HeLa cells. To be noted: tunicamycin, Tsaytler et al., Science 2011, cited from earlier work; for protection of cells from cytotoxic ER stress: HeLa cells.
The target of another data set is T1, human alpha2A receptor (Homo sapiens, UniProt P08913).
T1 construct: CHO cells endogenously expressing human alpha2A receptor; endogenous in cells; host or cells: CHO cells
T1 sequence (P08913 1-465): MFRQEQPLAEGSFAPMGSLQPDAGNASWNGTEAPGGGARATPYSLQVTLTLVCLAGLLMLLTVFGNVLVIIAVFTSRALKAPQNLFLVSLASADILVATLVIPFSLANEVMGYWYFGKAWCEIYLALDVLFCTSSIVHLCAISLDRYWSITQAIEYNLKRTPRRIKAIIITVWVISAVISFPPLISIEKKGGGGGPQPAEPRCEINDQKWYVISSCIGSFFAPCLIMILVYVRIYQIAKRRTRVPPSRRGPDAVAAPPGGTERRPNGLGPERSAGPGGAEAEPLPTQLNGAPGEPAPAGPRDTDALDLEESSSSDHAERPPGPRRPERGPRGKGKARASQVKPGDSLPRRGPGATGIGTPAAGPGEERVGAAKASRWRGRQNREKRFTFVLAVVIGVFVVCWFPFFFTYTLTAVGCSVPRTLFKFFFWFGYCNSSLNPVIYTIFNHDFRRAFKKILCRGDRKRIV
As to the kind of experiment: Functional GPCR assay for adrenergic α2A receptor (CellKey detection method). Type of data set: cell-based. As to conditions: agonist activity, CHO cells, impedance; EC50>33.3 μM considered no significant alpha-2 adrenergic activity; read-out: Functional adrenergic alpha2 receptor assay EC50.

For `Cc1ccc(/C=N/NC(=N)N)c(Cl)c1` [Compound 9, 2-(2-chloro-4-methylbenzylidene)hydrazinecarboximidamide], the “Cytoprotection from ER stress compared to guanabenz” value in the data set on HeLa cells [1] is “−”.

`Cc1cccc(/C=N/NC(=N)N)c1Cl` [Compound 11, 2-(2-chloro-3-methylbenzylidene)hydrazinecarboximidamide]: in the data set on HeLa cells [1], the “Cytoprotection from ER stress compared to guanabenz” value is “+”.

As for `N=C(N)N/N=C/c1ccncc1Cl` [Compound 6, 2-[(3-chloropyridin-4-yl)methylidene]hydrazinecarboximidamide], the “Cytoprotection from ER stress compared to guanabenz” value in the data set with HeLa cells [1] is given as “+”. Besides, the “Translation inhibition in non-stressed cells” value in the data set on HeLa cells [2] is “no effect”. Besides, the “cell death associated with accumulation of misfold prone Insulin Akita (FIG. 8)” value in the data set on Min6 cells is “prevent cell death”. The “INS1 insulinoma cell death induced by tunicamycin (FIG. 10)” value with INS1 insulinoma cell was “prevent INS1 insulinoma cell death”. In the data set on Min6 insulinoma cell, the “Min6 insulinoma cell death induced by tunicamycin (FIG. 9)” value is reported as “prevent Min6 insulinoma cell death”. Moreover, the “type-I IFN production (FIG. 13)” value in data set [3] is “prevent type-I IFN production”.

In the case of `Clc1cccc(Cl)c1N=C1NCCN1` [clonidine], in the data set on HeLa cells [4], the “protection of cells from cytotoxic ER stress” value (shortened to “protection of cells”) was “Neither the α2-adrenergic receptor agonist clonidine, nor the α2-adrenergic receptor antagonist efaroxan protected cells”.

For `CCC1(C2=NCCN2)Cc2ccccc2O1` (stereo not shown) [efaroxan], the “protection of cells” value in the data set on HeLa cells [4] is given as “Neither the α2-adrenergic receptor agonist clonidine, nor the α2-adrenergic receptor antagonist efaroxan protected cells”.

`CC(=O)O.N=C(N)N/N=C/c1ccncc1Cl` [Compound 7, 2-[(3-chloropyridin-4-yl)methylidene]hydrazinecarboximidamide acetate]: the “Cytoprotection from ER stress compared to guanabenz” value in the data set on HeLa cells [1] is recorded as “++”. The “Translation inhibition in non-stressed cells” value in the data set with HeLa cells [2] was “no effect”. Also, the EC50 on human alpha2A receptor is > 33300 nM.

With `NC(N)=N/N=C/c1c(Cl)cccc1Cl` [guanabenz, 2-(2,6-dichlorobenzylidene)hydrazinecarboximidamide], in the data set with HeLa cells [4], the “protection of cells” value is on record as “doubled the number of cells surviving ER stress”. The EC50 in the data set on HeLa cells [4] (read-out: median effective concentration, survival of HeLa cells exposed to ER stress) was ~400 nM.

Turning to `COc1ccccc1/C=N/NC(=N)N` [Compound 4, 2-(2-methoxybenzylidene) hydrazinecarboximidamide], the “Cytoprotection from ER stress compared to guanabenz” value in the data set on HeLa cells [1] is on record as “+”.

As to `CC(=O)O.N=C(N)N/N=C/c1c(F)cccc1Cl` [Compound 8, 2-(2-chloro-6-fluorobenzylidene)hydrazinecarboximidamide acetate], the “Cytoprotection from ER stress compared to guanabenz” value with HeLa cells [1] was “++”. The “Translation inhibition in non-stressed cells” value in the data set on HeLa cells [2] is reported as “no effect”. Besides, in data set [3], the “type-I IFN production (FIG. 13)” value is reported as “prevent type-I IFN production”.

Consider `Cc1ccc(Cl)c(/C=N/NC(=N)N)c1` [Compound 10, 2-(2-chloro-5-methylbenzylidene)hydrazinecarboximidamide], for which the “Cytoprotection from ER stress compared to guanabenz” value in the data set on HeLa cells [1] is given as “+”.

For `N=C(N)N/N=C/c1ccccc1Br` [Compound 3, 2-(2-bromobenzylidene) hydrazinecarboximidamide], the “Cytoprotection from ER stress compared to guanabenz” value in the data set on HeLa cells [1] is recorded as “++”. Also, the “Translation inhibition in non-stressed cells” value in the data set with HeLa cells [2] is on record as “no effect”.

(Values after patent publication US10709677B2, “Therapeutic uses of benzylideneguanidine derivatives for the treatment of proteopathies” (InFlectis BioScience, priority 2014, dated 2020).)
